We go through twelve compounds from patent US9828375B2, “4-position substituted pyrazolopyrimidine derivative, and use thereof in drug preparation” (Guangxi Wuzhou Pharmaceuticals (Group) Co., Ltd., priority 2012, dated 2017).

Where two headings read alike, the source gives them in different places.

By inhibition is commonly meant the relative decrease from the control value, in per cent.

One experiment has as its target c-KIT (Homo sapiens, UniProt P10721). Briefly: Kinase inhibition activity test, isotope labeling: c-KIT. It is filed as biochemical. To be noted: for Activity inhibition rate c-Kit (h) / inhibition at 10 µM: test compound at a concentration of 10 μM; for inhibition at 10 µM: read-out: Activity inhibition rate c-Kit (h). The method, then: (§1) The purpose of this experiment was to test the inhibitory activity of the compound of the invention for in vitro kinase with the isotope labeling method (the γ phosphate group on ATP was labeled). In this experiment, the in vitro activity inhibition of such kinases as FLT3, VEGFR2, FLT1, FLT4, RET, c-RAF, B-RAF, c-KIT, PDGFα, PDGFβ, FGFR2, FGFR1, EphA2, EphB2, SRC, ABL, ALK and Met was tested respectively. Staurosporine was reference molecule (or referred to as positive control). The kinase inhibition activity of the test compound was expressed by half-inhibitory concentration (IC50) or the kinase activity inhibition rate of the test compound at a concentration of 10 μM. The IC50 value could be obtained by calculating the kinase activity inhibition rate of the test compound at different concentrations.
(§2) 20 mM 3-(N-morpholinyl)propanesulfonic acid (MOPS); 1 mM ethylenediaminetetraacetic acid (EDTA), 0.01% Brij 35 (Brij-35), 5% glycerol, 0.1% mercaptoethanol, 1 mg/mL bovine serum albumin (BSA), 10 mM manganous dichloride solution (MnCl2), 0.1 mg/mL glutamic acid/tyrosine (4:1) polypeptide (poly(Glu, Tyr)4:1), 50 μM EAIYAAPFAKKK (substrate of FLT3), 0.33 mg/mL myelin basic protein (substrate of VEGFR2), 250 μM KKKSPGEYVNIEFG (substrate of FLT1(h)), 500 μM GGEEEEYFELVKKKK (substrate of FLT4(h)), 250 μM KKKSPGEYVNIEFG (substrate of RET), 0.66 mg/mL myelin basic protein (substrate of C-RAF), 250 μM GGMEDIYFEFMGGKKK (substrate of c-Kit), 250 μM GGMEDIYFEFMGGKKK (substrate of PDGFα), 250 μM KKKSPGEYVNIEFG (substrate of FGFR1), […] GGEEEEYFELVKKKK (substrate of SRC), 50 μM EAIYAAPFAKKK (substrate of ABL), 250 μM KKKSPGEYVNIEFG (substrate of ALK), 250 μM KKKSPGEYVNIEFG (substrate of Met(h)), 10 mM magnesium acetate and γ-^33 P-ATP solution, stop buffer (3% phosphate buffer), washing buffer (75 mM phosphate solution), methanol, Filtermat A membrane, FLT3, VEGFR2, FLT3, VEGFR2, FLT1, FLT4, RET, c-RAF, B-RAF, c-KIT, PDGFRα, PDGFRβ, FGFR2, FGFR1, EphA2, EphB2, SRC, ABL, ALK, Met and other kinases, and the test compounds.
(§3) Buffers (8 mM MOPS with pH value of 7.0, 0.2 mM EDTA and 10 mM MnCl2), (5-10 mU) kinases to be tested (FLT3, VEGFR2, FLT1, FLT4, RET, c-RAF, B-RAF, c-KIT, PDGFRα, PDGFRβ, FGFR2, FGFR1, EphA2, EphB2, SRC, ABL, ALK and Met), substrates of kinases to be tested (refer to experimental materials), 10 mM magnesium acetate and γ-^33 P-ATP solution, and test compounds at different concentrations were added to a reaction tube orderly. […] Reaction was terminated with 5 μL 3% phosphate buffer finally, and 10 μL reaction solution was titrated to the Filtermat A membrane; solution was washed for 3 times with 75 mM phosphate solution with each time lasting 5 minutes, and then washed once with methanol. Finally, the Filtermat A membrane was dried, and scintillation counting was performed on the membrane, with scintillation count reflecting the phosphorylation degree of the substrates, so that the activity inhibition of kinase could be characterized.

Experiment [1] relates to human colorectal carcinoma cell line HCT116. Briefly: In vitro tumor cell proliferation inhibition (MTT): HCT116. It is filed as cell-based. The source says: (§4) The purpose of the experiment was to test the inhibition activity of the compounds of the invention for in vitro human tumor cell proliferation by the methyl thiazolyl tetrazolium (MTT) colorimetry.
(§5) Main reagents: RPMI-1640, fetal bovine serum, pancreatin, etc. were purchased from Gibco BRL Company (Invitrogen Corporation, USA) and IMDM medium that was purchased from American Type Culture Collection (ATCC). Methyl thiazolyl tetrazolium (MTT) and dimethyl sulfoxide (DMSO) were products from Sigma Company (USA). Pyrazolopyrimidine derivatives were composed by the inventor. During in vitro experiment, 100% DMSO was prepared into 10 mM storage solution, the solution was stored in a refrigerator at −20° C. for future use, and was diluted to the required concentration with complete culture solution before use.
(§6) Cell line and culture: Human leukemia cell line MV4-11, Jurkat, K562, human thyrophyma cell line TT, human gastric carcinoma cell line MKN-45, human malignant melanoma cell lines A375 and A875, human pancreatic carcinoma cell line panc-1, human cervical carcinoma cell line HELA, human colorectal carcinoma cell line HCT116, etc. were purchased from American type culture collection and were preserved by this laboratory. All leukemia cell lines (except MV4-11), gastric carcinoma cell lines and thyrophyma cell lines were cultured in RPMI-1640 complete medium containing 10% fetal bovine serum, 100 U/mL penicillin and 100 μg/mL streptomycin at 37° C. in 5% CO2. The remaining cell lines were cultured in DMEM complete medium containing 10% fetal bovine serum (containing 20% MV4-11 cell), 100 U/mL penicillin and 100 µg/mL streptomycin at 37° C. in 5% CO2.
(§7) Cell suspension with cell concentration of 1-2×10^4/mL was adjusted with the complete cell medium and inoculated in a 96-well plate, with each well filled with 200 μl cell suspension that was cultured overnight. On the next day, supernatant was sucked and abandoned (supernatant was sucked upon centrifugation of suspension cells), and then cells were processed with test compounds at gradient concentrations respectively. Meanwhile, a negative control group free from drug and a solvent control group with equal volume were set, and the DMSO concentration was 0.1%. Each dose group was provided with three wells and cultured at 37° C. in 5% CO2. After 72 hours, 20 μl 5 mg/mL MTT reagent was added to each well, and cultured for another 2 to 4 hours, the supernatant was abandoned; 150 μL DMSO was added to each well again, vibrated and mixed evenly for 15 minutes; the absorbance (A) values (proportional to living cell amount) were determined with a microplate reader (λ=570 nm) and averaged. […] Experiment was repeated for 3 times at least. Experimental data were expressed with means, data statistics were tested by t, and P<0.05 means that difference has a statistical significance. The cell proliferation inhibition effects of all compounds as follows are expressed by IC50 or inhibition rate.

A further experiment addresses FGFR2 (Homo sapiens, UniProt P21802). Briefly: Kinase inhibition activity test, isotope labeling: FGFR2. It is filed as biochemical. Particulars: for Activity inhibition rate FGFR2 (h) / inhibition at 10 µM: test compound at a concentration of 10 μM; for inhibition at 10 µM: read-out: Activity inhibition rate FGFR2 (h). As for the experimental part:
as §1, §2, §3

For experiment [2], the system named is human cervical carcinoma cell line HELA. Briefly: In vitro tumor cell proliferation inhibition (MTT): HELA. In kind it is cell-based. Particulars: 72 hours.
Excerpt: as §4, §5, §6, §7

Experiment [3] relates to human malignant melanoma cell line A875. Briefly: In vitro tumor cell proliferation inhibition (MTT): A875. It is filed as cell-based.
Excerpt: as §4, §5, §6, §7

Experiment [4] has as its system human malignant melanoma cell line A375. As to the kind of experiment: In vitro tumor cell proliferation inhibition (MTT): A375. In kind it is cell-based.
Excerpt: as §4, §5, §6, §7

The mark [5] stands for this setting: 72 hours, read-out: Proliferation inhibition activity (IC50) HCT 116.
Setting [6] is: Homo sapiens, HCT-116, 72 hours.

Chain of FGFR2 (P21802 22-821): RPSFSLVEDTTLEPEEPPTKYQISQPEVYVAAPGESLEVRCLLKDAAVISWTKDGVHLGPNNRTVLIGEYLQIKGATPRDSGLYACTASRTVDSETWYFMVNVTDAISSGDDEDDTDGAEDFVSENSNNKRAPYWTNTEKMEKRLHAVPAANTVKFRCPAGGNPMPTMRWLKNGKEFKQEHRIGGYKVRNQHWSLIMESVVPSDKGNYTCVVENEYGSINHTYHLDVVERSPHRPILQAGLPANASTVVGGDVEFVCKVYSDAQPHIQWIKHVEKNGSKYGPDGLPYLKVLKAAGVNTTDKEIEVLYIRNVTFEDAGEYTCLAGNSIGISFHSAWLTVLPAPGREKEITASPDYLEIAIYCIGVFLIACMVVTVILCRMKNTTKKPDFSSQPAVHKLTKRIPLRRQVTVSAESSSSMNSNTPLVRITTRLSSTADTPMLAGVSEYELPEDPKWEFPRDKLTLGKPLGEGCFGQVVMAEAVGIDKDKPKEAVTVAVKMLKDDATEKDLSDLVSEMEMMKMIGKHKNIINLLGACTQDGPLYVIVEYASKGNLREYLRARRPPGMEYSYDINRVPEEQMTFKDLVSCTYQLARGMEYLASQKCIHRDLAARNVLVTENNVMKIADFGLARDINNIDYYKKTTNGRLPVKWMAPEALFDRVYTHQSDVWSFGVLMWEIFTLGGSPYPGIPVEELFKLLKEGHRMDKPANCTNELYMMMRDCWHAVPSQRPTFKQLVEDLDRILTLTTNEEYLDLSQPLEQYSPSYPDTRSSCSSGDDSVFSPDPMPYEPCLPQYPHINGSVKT
Chain of c-KIT (P10721 26-976): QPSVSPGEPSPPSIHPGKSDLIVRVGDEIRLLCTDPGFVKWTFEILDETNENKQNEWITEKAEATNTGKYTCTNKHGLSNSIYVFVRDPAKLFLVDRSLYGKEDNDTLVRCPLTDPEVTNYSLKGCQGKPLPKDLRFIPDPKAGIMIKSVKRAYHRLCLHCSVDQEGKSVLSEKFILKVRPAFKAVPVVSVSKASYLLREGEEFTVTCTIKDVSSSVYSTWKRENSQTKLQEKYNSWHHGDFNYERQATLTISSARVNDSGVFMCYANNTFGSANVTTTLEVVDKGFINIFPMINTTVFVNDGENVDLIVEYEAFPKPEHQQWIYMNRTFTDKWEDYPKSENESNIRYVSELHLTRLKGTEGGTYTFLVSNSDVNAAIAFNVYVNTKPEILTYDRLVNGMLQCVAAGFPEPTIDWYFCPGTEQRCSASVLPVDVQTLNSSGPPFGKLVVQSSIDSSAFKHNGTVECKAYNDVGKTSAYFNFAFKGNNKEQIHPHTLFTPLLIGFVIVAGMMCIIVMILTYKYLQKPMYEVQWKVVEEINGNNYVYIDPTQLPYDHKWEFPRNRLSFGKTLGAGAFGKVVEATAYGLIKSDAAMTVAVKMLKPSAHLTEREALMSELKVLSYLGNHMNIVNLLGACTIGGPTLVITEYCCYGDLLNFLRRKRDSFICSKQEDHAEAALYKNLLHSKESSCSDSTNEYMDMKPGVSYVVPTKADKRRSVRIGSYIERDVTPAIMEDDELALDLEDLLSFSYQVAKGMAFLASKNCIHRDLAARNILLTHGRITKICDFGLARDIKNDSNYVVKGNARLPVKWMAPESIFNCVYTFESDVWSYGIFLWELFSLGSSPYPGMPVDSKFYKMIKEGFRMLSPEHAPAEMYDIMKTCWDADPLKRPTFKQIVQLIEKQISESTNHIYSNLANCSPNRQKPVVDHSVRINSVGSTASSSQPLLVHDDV

Turning to `CC(C)c1cccc(NC(=O)Nc2ccc(Oc3ncnc4[nH]ncc34)c(F)c2)c1` [4a-7, 1-(4-((1H-pyrazolopyrimidine-4-yl)oxy)-3-fluorophenyl)-3-(3-isopropylphenyl)urea], on c-KIT, the “Activity inhibition rate c-Kit (h)” value was determined as 98%. In addition, the IC50 in experiment [1] (setting [5]), in experiment [2], in experiment [3] (72 hours) and in experiment [4] (72 hours) was < 50 µM each time. The “Activity inhibition rate FGFR2 (h)” value on FGFR2 came to 51%.
In the case of `O=C(Nc1ccc(C(F)(F)F)cc1)Nc1ccc(Oc2ncnc3[nH]ncc23)c(F)c1` [4a-9, 1-(4-((1H-pyrazolopyrimidine-4-yl)oxy)-3-fluorophenyl)-3-(4-(trifluoromethyl)phenyl)urea], on c-KIT, the “Activity inhibition rate c-Kit (h)” value is listed as 29%. Moreover, the IC50 is 4.56 µM in experiment [1] (setting [5]), 4.98 µM in experiment [2], < 50 µM in experiment [3] (72 hours) and < 50 µM in experiment [4] (72 hours). In addition, the “Activity inhibition rate FGFR2 (h)” value at FGFR2 is 18%.
For `O=C(Nc1ccc(Oc2ncnc3[nH]ncc23)c(F)c1)Nc1ccc(Cl)c(C(F)(F)F)c1` [4a-10, 1-(4-((1H-pyrazolopyrimidine-4-yl)oxy)-3-fluorophenyl)-3-(4-chloro-3-(trifluoromethyl)phenyl)urea], at c-KIT, the “Activity inhibition rate c-Kit (h)” value worked out at 49%. Further, the IC50 in experiment [1] (setting [5]), in experiment [2], in experiment [3] (72 hours) and in experiment [4] (72 hours) was < 50 µM in each case. Also, the “Activity inhibition rate FGFR2 (h)” value on FGFR2 is 53%.
Take `O=C(Nc1ccc(Oc2ncnc3[nH]ncc23)cc1)Nc1cc(C(F)(F)F)cc(C(F)(F)F)c1` [4a-12, 1-(4-((1H-pyrazolopyrimidine-4-yl)oxy)phenyl)-3-(3,5-bis(trifluoromethyl)phenyl)urea]: the “Activity inhibition rate c-Kit (h)” value on c-KIT was found to be 58%. Also, the IC50 in experiment [1] (setting [5]), in experiment [2], in experiment [3] (72 hours) and in experiment [4] (72 hours) was < 50 µM each time. In addition, the “Activity inhibition rate FGFR2 (h)” value at FGFR2 is 71%.
Consider `O=C(Nc1ccc(Oc2ncnc3[nH]ncc23)cc1)Nc1ccc(C(F)(F)F)cc1Cl` [4a-13], for which the “Activity inhibition rate c-Kit (h)” value at c-KIT was 85%. The IC50 in experiment [1] (setting [5]), in experiment [2], in experiment [3] (72 hours) and in experiment [4] (72 hours) was < 50 µM each time. In addition, the “Activity inhibition rate FGFR2 (h)” value at FGFR2 was found to be 13%.
Take `O=C(Nc1ccccc1)Nc1ccc(Oc2ncnc3[nH]ncc23)cc1` [4a-15, 1-(4-((1H-pyrazolopyrimidine-4-yl)oxy)phenyl)-3-phenylurea]: on c-KIT, the “Activity inhibition rate c-Kit (h)” value is 66%. Besides, the IC50 in experiment [1] (setting [5]), in experiment [2], in experiment [3] (72 hours) and in experiment [4] (72 hours) was < 50 µM each time. The “Activity inhibition rate FGFR2 (h)” value at FGFR2 amounted to 100%.
For `C[C@H](NC(=O)Nc1ccc(Oc2ncnc3[nH]ncc23)cc1)c1ccccc1` [4a-18, (S)-1-(4-((1H-pyrazolopyrimidine-4-yl)oxy)phenyl)-3-(1-phenethyl)urea], the “Activity inhibition rate c-Kit (h)” value at c-KIT came out at 100%. Besides, the IC50 in experiment [1] (setting [5]), in experiment [2], in experiment [3] (72 hours) and in experiment [4] (72 hours) was < 50 µM in each case. Also, on FGFR2, the “Activity inhibition rate FGFR2 (h)” value stood at 22%.
For `C[C@@H](NC(=O)Nc1ccc(Oc2ncnc3[nH]ncc23)cc1)c1ccccc1` [4a-19, (R)-1-(4-((1H-pyrazolopyrimidine-4-yl)oxy)phenyl)-3-(1-phenethyl)urea], on c-KIT, the “Activity inhibition rate c-Kit (h)” value stood at 93%. Besides, the IC50 in experiment [1] (setting [5]), in experiment [2], in experiment [3] (72 hours) and in experiment [4] (72 hours) was < 50 µM throughout. Also, at FGFR2, the “Activity inhibition rate FGFR2 (h)” value stood at 17%.
For the compound `CC(C)(C)c1cc(NC(=O)Nc2ccc(Oc3ncnc4[nH]ncc34)cc2)n(-c2ccccc2)n1` [4a-24], the “Activity inhibition rate c-Kit (h)” value at c-KIT is listed as >90%. In addition, the IC50 in experiment [1] (setting [5]) worked out at 6.75 µM; in experiment [2] it was 5.51 µM; in experiment [3] (72 hours) it was 4.27 µM; in experiment [4] (72 hours) it was 6.94 µM. At FGFR2, the “Activity inhibition rate FGFR2 (h)” value is given as >50%.
Turning to `CC(C)(C)c1cc(NC(=O)Nc2ccc(Oc3ncnc4[nH]ncc34)cc2)on1` [4a-25], the IC50 at c-KIT (ATP 200 μM, read-out: c-KIT IC50 value (inhibitory activity value)) was 0.911 µM; in experiment [1] (setting [5]), 3 to 10 µM; at FGFR2 (ATP 90 μM, read-out: FGFR2 IC50 value (inhibitory activity value)) it was < 10 µM; in experiment [2], 3 to 10 µM; in experiment [3] (72 hours) it was 3 to 10 µM; in experiment [4] (72 hours), 3 to 10 µM. Besides, on c-KIT, the “Activity inhibition rate c-Kit (h)” value is on record as >90%. Further, on FGFR2, the “Activity inhibition rate FGFR2 (h)” value is >50%.
Turning to `CC(C)(C)c1cc(NC(=O)Nc2ccc(Oc3ncnc4[nH]ncc34)cc2)no1` [4a-26], the inhibition at 10 µM on c-KIT is > 90%; on FGFR2 it was > 50%. The IC50 was 3 to 10 µM in experiment [1] (setting [6]); 3 to 10 µM in experiment [2] (Homo sapiens, HeLa); 3 to 10 µM in experiment [3] (Homo sapiens, A875, 72 hours); 3 to 10 µM in experiment [4] (Homo sapiens, A-375, 72 hours).
For the compound `O=C(Nc1ccc(Oc2ncnc3[nH]ncc23)cc1)Nc1cc(C(F)(F)F)on1` [4a-28], the inhibition at 10 µM at c-KIT is > 90%; on FGFR2, > 50%. Also, the IC50 in experiment [1] (setting [6]) was < 50 µM; in experiment [2] (Homo sapiens, HeLa) it was < 50 µM; in experiment [3] (Homo sapiens, A875, 72 hours), < 50 µM; in experiment [4] (Homo sapiens, A-375, 72 hours), < 50 µM.
